For experiment [1], the target named is Sphingosine 1-phosphate receptor 2 (Homo sapiens, UniProt O95136). The experiment is described as follows: Dose Response Cell Based Assay for Antagonists of the S1P2 Receptor. [Related pubchem assays: 856, 736 ]. It is filed as functional.
Experiment [2] concerns the target Platelet-derived growth factor receptor beta (Homo sapiens, UniProt P09619). The class given is functional.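 Note: value comes from a kinome panel, with PDGFRB tested as one panel member.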
Experiment [3] deals with Cyclin-dependent kinase 19 (Homo sapiens, UniProt Q9BWU1). The experiment is described as follows: Navigating the Kinome. Panel member name: CDC2L6. It is filed as functional.
Cyclin-dependent kinase 19, sequence (Q9BWU1 whole entry): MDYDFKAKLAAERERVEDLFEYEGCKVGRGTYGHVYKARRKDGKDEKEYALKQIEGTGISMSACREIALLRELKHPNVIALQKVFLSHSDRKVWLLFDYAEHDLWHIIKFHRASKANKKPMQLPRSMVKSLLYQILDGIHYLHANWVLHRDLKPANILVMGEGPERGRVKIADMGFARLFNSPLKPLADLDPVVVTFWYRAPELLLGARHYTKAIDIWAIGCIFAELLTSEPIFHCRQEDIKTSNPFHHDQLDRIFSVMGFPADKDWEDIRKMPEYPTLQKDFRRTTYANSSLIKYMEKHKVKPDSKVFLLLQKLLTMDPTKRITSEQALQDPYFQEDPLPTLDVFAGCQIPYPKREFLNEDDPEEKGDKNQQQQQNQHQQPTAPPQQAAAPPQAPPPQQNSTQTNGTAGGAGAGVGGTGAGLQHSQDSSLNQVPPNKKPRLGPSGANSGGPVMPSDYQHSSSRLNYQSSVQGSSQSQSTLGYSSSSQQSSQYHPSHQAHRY
In experiment [4] the target is T1, Exodeoxyribonuclease V (Escherichia coli (strain K12), UniProt P04993+P07648+P08394).
T1 sequence (P04993 whole entry): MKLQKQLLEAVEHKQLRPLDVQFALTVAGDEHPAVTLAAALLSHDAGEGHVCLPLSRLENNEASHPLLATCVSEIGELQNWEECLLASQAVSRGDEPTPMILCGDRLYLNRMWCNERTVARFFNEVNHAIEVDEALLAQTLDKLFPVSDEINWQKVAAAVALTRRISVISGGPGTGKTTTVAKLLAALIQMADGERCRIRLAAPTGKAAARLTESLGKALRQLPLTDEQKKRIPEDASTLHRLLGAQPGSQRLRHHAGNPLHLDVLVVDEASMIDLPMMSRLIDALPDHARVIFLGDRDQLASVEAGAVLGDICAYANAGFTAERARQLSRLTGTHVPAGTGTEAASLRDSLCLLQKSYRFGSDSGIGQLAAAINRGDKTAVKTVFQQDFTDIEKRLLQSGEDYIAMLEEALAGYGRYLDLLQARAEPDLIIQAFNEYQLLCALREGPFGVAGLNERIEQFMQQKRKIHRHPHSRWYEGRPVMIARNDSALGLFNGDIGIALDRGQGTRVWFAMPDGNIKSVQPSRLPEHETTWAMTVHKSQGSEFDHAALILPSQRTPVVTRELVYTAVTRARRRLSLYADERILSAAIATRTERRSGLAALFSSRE
T1 sequence (P07648 whole entry): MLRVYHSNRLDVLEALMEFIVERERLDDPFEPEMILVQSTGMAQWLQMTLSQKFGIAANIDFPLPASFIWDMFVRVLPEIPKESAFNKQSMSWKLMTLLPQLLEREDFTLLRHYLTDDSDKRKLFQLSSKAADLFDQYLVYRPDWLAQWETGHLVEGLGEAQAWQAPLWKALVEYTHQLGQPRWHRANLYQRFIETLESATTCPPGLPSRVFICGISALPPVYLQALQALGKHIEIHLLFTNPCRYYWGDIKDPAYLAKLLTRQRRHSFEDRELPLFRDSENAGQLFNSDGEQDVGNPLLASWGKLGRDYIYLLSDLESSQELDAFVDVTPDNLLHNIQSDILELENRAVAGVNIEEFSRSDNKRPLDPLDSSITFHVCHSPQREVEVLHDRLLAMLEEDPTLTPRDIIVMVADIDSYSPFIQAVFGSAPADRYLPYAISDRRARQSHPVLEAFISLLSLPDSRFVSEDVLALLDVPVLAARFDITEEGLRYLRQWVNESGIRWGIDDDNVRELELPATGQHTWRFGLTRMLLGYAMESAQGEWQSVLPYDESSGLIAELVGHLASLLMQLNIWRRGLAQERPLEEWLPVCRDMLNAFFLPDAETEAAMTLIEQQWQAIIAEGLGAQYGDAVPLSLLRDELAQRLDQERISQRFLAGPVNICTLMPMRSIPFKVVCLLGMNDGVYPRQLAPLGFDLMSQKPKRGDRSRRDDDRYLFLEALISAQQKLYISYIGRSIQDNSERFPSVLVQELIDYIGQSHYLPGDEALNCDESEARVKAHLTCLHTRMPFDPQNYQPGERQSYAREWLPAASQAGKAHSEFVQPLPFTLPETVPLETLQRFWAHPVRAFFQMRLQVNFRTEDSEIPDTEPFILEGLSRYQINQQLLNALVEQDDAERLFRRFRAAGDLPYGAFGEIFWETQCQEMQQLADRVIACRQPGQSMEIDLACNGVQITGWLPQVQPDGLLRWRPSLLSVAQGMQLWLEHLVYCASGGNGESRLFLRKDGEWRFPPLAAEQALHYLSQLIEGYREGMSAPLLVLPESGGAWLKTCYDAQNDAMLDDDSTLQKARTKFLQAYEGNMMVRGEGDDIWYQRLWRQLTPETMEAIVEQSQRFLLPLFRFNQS
T1 sequence (P08394 whole entry): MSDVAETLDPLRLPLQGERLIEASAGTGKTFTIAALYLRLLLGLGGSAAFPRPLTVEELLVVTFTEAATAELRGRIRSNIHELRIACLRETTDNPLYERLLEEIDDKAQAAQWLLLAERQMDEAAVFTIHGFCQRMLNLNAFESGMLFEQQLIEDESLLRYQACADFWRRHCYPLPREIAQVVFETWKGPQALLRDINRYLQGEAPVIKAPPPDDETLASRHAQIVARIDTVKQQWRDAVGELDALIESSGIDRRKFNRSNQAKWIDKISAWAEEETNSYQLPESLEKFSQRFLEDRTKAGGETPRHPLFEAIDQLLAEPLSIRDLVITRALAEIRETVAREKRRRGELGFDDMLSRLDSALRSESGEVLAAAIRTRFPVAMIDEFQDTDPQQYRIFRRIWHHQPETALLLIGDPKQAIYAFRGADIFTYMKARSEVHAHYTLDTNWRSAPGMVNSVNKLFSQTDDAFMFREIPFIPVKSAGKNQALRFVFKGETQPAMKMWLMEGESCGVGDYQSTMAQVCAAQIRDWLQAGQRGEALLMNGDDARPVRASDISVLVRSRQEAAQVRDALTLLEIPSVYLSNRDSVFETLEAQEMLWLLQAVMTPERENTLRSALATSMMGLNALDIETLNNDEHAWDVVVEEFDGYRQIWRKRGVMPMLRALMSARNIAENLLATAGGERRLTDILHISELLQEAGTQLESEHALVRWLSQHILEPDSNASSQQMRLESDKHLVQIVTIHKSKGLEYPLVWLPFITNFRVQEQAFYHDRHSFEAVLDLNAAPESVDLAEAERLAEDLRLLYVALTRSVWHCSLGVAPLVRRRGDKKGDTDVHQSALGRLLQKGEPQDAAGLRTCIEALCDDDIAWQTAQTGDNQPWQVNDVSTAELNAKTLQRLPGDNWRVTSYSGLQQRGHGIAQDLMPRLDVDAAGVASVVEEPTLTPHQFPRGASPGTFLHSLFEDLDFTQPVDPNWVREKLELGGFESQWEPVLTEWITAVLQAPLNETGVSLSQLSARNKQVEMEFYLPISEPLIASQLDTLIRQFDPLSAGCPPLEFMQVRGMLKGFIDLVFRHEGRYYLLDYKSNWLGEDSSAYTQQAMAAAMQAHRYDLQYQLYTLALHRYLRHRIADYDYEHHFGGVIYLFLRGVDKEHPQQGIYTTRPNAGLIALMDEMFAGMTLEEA
Nature of the experiment: E. coli RecBCD inhibitors, dose response, counter-screen for AddAB inhibitor project, absorbance, V66 E. coli, mutant T4 phage (AID 492957). The class given is functional, cell-based, Escherichia coli str. K-12 substr. MG1655.

A short description of experiment [5]: ZM109 Env clade C HIV-1 fusion inhibitors, dose response, HeLa effector, CEM target cells, luciferase, cherry-pick (AID 652058). The class given is functional, cell-based.

Activity calls are given as the source filed them.

Platelet-derived growth factor receptor beta, sequence (P09619 whole entry): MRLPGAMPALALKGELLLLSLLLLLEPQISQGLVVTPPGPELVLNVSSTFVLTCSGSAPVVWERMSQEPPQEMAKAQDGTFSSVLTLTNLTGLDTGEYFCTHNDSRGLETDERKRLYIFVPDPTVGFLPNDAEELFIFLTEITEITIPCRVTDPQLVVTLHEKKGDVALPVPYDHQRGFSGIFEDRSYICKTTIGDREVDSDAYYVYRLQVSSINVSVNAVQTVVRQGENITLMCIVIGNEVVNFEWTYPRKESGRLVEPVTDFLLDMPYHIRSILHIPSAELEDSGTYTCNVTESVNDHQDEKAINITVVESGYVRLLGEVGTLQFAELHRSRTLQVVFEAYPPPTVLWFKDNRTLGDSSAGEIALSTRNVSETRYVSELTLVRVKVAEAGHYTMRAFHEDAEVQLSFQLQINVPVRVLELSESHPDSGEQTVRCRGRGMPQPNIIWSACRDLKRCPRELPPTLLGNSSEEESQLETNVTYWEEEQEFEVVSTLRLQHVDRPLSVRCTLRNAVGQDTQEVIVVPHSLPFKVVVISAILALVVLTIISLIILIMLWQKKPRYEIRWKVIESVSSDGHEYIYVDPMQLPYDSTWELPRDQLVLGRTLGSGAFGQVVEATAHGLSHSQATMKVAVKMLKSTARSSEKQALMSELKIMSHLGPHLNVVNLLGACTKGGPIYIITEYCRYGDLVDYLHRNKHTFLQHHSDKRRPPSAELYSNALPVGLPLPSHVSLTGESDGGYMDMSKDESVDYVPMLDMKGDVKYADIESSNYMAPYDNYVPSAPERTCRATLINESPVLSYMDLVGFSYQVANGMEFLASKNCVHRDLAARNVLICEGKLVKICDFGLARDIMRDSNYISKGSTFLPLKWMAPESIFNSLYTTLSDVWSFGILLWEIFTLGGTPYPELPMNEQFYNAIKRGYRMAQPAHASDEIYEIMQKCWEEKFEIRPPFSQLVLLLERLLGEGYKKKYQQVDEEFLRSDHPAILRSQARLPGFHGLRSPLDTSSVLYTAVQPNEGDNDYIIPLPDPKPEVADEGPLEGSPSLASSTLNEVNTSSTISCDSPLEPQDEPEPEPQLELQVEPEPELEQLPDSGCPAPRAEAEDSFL
Sphingosine 1-phosphate receptor 2, sequence (O95136 whole entry): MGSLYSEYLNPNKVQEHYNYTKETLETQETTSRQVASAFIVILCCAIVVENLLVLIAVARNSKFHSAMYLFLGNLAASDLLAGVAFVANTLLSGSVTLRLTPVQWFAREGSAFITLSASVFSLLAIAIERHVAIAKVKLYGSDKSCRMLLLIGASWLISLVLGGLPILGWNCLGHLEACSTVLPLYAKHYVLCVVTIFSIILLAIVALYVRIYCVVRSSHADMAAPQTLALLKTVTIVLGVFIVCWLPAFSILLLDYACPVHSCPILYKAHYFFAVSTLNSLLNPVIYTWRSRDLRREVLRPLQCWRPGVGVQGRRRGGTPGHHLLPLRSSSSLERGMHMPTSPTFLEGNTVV

The term IC50 denotes the concentration needed to halve the response being measured. As for `Cc1ccc(C(=O)OCn2ncc(Cl)c(Cl)c2=O)cc1`, the IC50 in experiment [1] was 2.65 µM (active).

In general, Ki refers to the equilibrium dissociation constant of an inhibitor or competing ligand from its target. As for `O=C(Nc1cccc(C2Nc3ccc4ccccc4c3C3C=CCC32)c1)c1ccc(F)cc1` (stereo not given), the Ki in experiment [2] is 1.58 µM (active).

In the case of `Cc1ccc(-c2cc(-c3cc(Br)ccc3O)[nH]c(=O)c2C#N)s1`, in experiment [3], the Ki is > 100 µM (inactive).

What is called AC50 is the midpoint of the concentration-response curve, whichever way the signal moves. `CCCC(=O)NC(c1cccs1)c1cc(Cl)c2cccnc2c1O` (stereo not given): the IC50 in experiment [4] was > 119 µM (inactive). Moreover, the AC50 in experiment [5] is 15 µM (active).

These data come from ChEMBL document CHEMBL1201862, “PubChem BioAssay data set” (2004).
